Results taken from patent publication US5817766A, “Reagents for a cannabinoid immunoassay” (Roche Diagnostic Systems, Inc., priority 1995, dated 1998).

Assays:
[1] = tested on: MoAb 11E.2; experiment: MIRA assay ABUSCREEN 100 TEST ONLINE KIT for cannabinoids, MoAb 11E.2; type: binding, Murine; settings: commercial MIRA assay; (II) = 100 by definition; IgA from immunization with (VIII) alone
Excerpt: (§1) Table 2 below illustrates how a novel clone (11A6) derived by using the triple sequential immunization procedure described herein performs in an actual commercial MIRA (Roche Diagnostic Systems, Inc., Branchburg, N.J.) assay ABUSCREEN® 100 TEST ONLINE™ KIT (Roche Diagnostic Systems, Inc., Branchburg, N.J. immunoassay) for cannabinoids. Example 20 describes the reagents contained in Roche's commercial Abuscreen® 100 Test Online™ Kit, except that the antibody has been replaced by a novel antibody according to this invention. […] Both tables also report the corresponding results using the monoclonal antibody (11E.2) derived from immunization with a single immunogen (immunogen (VIII)).
(§2) In Table 2, MoAb 11E.2 is an IgA (dimeric) antibody, while MoAB 11A6 is an IgG (monomeric) antibody. In order to agglutinate the microparticles included in the current commercial MIRA assay when 11A6 is used, inclusion of an anti-IgG antibody (commercially available, e.g., from Biodesign Int., Kennebunk, Me. 04043, USA) was required.
(§3) This example describes the reagents contained in Roche's ABUSCREEN® 100 TEST ONLINE™ KIT (Roche Diagnostic Systems, Inc., Branchburg, N.J. immunoassay) for cannabinoids.
(§4) 1. Antibody Reagent: A cannabinoid monoclonal antibody (IgG) with a secondary antibody adjusted in concentration to give the best dynamic standard curve with desired performance characteristics around the assay cutoff. This antibody is diluted in an antibody diluent containing: 50 mM HEPES, 0.1% BSA, 0.5% sodium chloride, 0.09% sodium azide and adjusted to a pH of 6.5.
(§5) 2. Microparticle Reagent: Conjugated cannabinoids derivative microparticle in a buffer containing 10 mM kPi pH 7.5 and 0.09% sodium Azide (supplied in kit).
(§6) 3. Sample Diluent: Buffer containing 50 mM PIPES pH 7.0, 2.5% PVP, 2.0% Sodium Chloride and 0.09% sodium azide (supplied in kit).
(§7) An assay using the above reagents is performed pursuant to the directions stated in the package insert for the commercially available Roche Abuscreen® Online™ 100 test kit for cannabinoids.

[2] = tested on: MoAb 11A6; experiment: MIRA assay ABUSCREEN 100 TEST ONLINE KIT for cannabinoids, MoAb 11A6 with anti-IgG; type: binding, Murine; settings: commercial MIRA assay; (II) = 100 by definition; IgG from triple sequential immunization
Excerpt: as §1, §2, §3, §4, §5, §6, §7

| Structure (SMILES) | CROSS REACTIVITY (%) MoAb 11E.2 [1] [%] | CROSS REACTIVITY (%) MoAb 11A6 with anti-IgG [2] [%] |
| --- | --- | --- |
| CCCCCc1cc(O)c2c(c1)OC(C)(C)c1ccc(CO)cc1-2 [11-Hydroxycannabinol] | 16 | 35 |
| CCCCCc1cc(O)c2c(c1)OC(C)(C)[C@@H]1C[C@H](O)C(C)=C[C@@H]21 [(-)-8α-Hydroxy-Δ^9 -THC (VI), (-)-8α-Hydroxy-Δ^9 -THC] | 60 | 71 |
| CCCCCc1cc(O)c2c(c1)OC(C)(C)[C@@H]1C[C@@H](O)C(CO)=C[C@@H]21 [(-)-8β,11-Dihydroxy-Δ^9 -THC (VII), (-)-8β,11-Dihydroxy-Δ^9 -THC] | 14 | 36 |
| CCCCCc1cc(O)c2c(c1)OC(C)(C)[C@@H]1CCC(CO)=C[C@@H]21 [(-)-11-Hydroxy-Δ^9 -THC (V), (-)-11-Hydroxy-Δ^9 -THC] | 23 | 32 |
| CCCCCc1cc(O)c2c(c1)OC(C)(C)[C@@H]1CCC(C)=C[C@@H]21 [(-)-Δ^9 -THC, Δ^9 -tetrahydrocannabinol] | 7.6 | 7.3 |
| CCCCCc1cc(O)c2c(c1)OC(C)(C)[C@@H]1CCC(C(=O)O)=C[C@@H]21 [(-)-Δ^9-11-nor-9-COOH-THC (II), Δ^9-11-nor-9-carboxy-THC] | 100 | 100 |
| C=C(C)[C@@H]1CCC(C)=C[C@H]1c1c(O)cc(CCCCC)cc1O [Cannabidiol] | < 0.1 | < 0.1 |
| CCCCCc1cc(O)c2c(c1)OC(C)(C)c1ccc(C)cc1-2 [Cannabinol] | 0.6 | 1.6 |
